Source: patent publication US20250144227A1, “C-16 MODIFIED TRIOXACARCINS, ANTIBODY DRUG CONJUGATES, AND USES THEREOF” (President and Fellows of Harvard College, priority 2021, published 2025)
Read-outs that look alike come from different tables or passages of the source.

System: H460 cells
Assay: Cell proliferation assay (resazurin, CellTiter-Blue), H460 cells
Format: cell-based
Conditions: for GI50: Homo sapiens; for Effect of the C16 modification on potency (in words): comment on the data of Table 2 (H460 cells)
Procedure: Cell Culture: All cell-culture work was conducted in a class II biological safety cabinet. H460 cells (P2-P4, American Type Culture Collection) were maintained in RPMI-1640 medium supplemented with 10% fetal bovine serum (FBS). HL-60 cells (P2-P4, American Type Cuture Collection) were maintained in RPMI-1640 medium supplemented with 10% FBS. MES-SA/Dx-5 cells (P2-P4, European Collection of Authenticated Cell Cultures) were maintained in McCoy's 5A medium supplemented with 10% FBS.
Cell Proliferation Assay: H460 and MES-SA/Dx-5 cells were grown to approximately 80% confluence, and then were trpysinized, collected, and pelleted by centrifugation (10 min at 183 x g, 24° C.), and HL-60 cells were grown to confluence and directly pelleted by centrifugation (10 min at 183 × g, 24° C.). The supernatant was discarded and the cell pellet was resuspended in 10 mL of fresh medium. A sample was diluted 10-fold in fresh medium, and the concentration of cells was determined using a hemacytometer. The cell suspension was diluted to a concentration of 3000 cells/100 μL. The wells of a pre-sterilized 96-well plate were charged with 100 μL per well of the diluted cellular suspension. The plate was incubated for 24 h at 37° C. (5% CO2).
Stock solutions of each compound in DMSO were diluted with the appropriate media to 100 nM solutions (1% DMSO), which were then serially diluted with the appropriate media, and 100-uL aliquots of the resulting solutions were added to the wells containing adhered cells to achieve final concentrations of 0.39 nM to 50 nM. After incubating at 37° C. for 72 h (5% CO2), 20 μL of resazurin solution (Promega CellTiter-Blue® Cell Viability Assay) was added to each well. After incubating at 37° C. for 2.0 h (5% CO2), the fluorescence (544 nm excitation/590 nm emission) was recorded using a microplate reader (SpectraMax PLUS384) as a measure of viable cells.
Percent growth inhibition was calculated for each well, based upon the following formula: Percent growth inhibition=100×(S−B0)/(Bt−B0) where S is the sample fluorescence, Bt is the average fluorescence of an untreated population of cells at the completion of the assay, and B0 is the average fluorescence of an untreated population of cells at the beginning of the assay.
Each compound was assayed at eight separate concentrations per experiment. The percent inhibition at each concentration was plotted against log (concentration), and a curve fit was generated using the XLfit4 plugin (IDBS Software) running in Excel (Microsoft). GI50 values were computed to reflect the concentrations at which the resulting curves pass through 50% inhibition.

[1] = NCI-H460, H460 cells, 72 h incubation, read-out: GI50

GI50 [1]	SMILES	GI50 (NCI-H460, 72 h)	Effect of the C16 modification on potency (in words)
–	COc1c2c(c(O)c3c4c(c(C)cc13)C1O[C@]3(CN=[N+]=[N-])O[C@H]1[C@@](OC)(O4)[C@@]31CO1)C(=O)CCC2 (stereo partly drawn) [compound 25, (2R,2′R,3a′R,13a′R)-2′-(Azidomethyl)-12′-hydroxy-7′,13a′-dimethoxy-5′-methyl-3a′, 4′,8′,9′,10′,13a′-hexahydro-2′H,11′H-spiro[oxirane-2,1′-[2,4]epoxyfuro[3,2-b]naphtho[2,3-h]chromen]-11′-one]	33 nM	good tolerance
> 100 nM	COc1c2c(c(O)c3c4c(c(C)cc13)C1O[C@]3(COCc5ccccc5)O[C@H]1[C@@](OC)(O4)[C@@]31CO1)C(=O)CCC2 (stereo partly drawn) [compound 18, (2R,2′R,3a′R, 13a′R)-2′-((Benzyloxy)methyl)-12′-hydroxy-7′,13a′-dimethoxy-5′-methyl-3a′,4′,8′,9′,10′,13a′-hexahydro-2′H, 11′H-spiro [oxirane-2,1′-[2,4]epoxyfuro[3,2-b]naphtho[2,3-h]chromen]-11′-one]	–	–
–	COc1c2c(c(O)c3c4c(c(C)cc13)C1OC3(CSC(C)=O)OC1[C@@](OC)(O4)[C@@]31CO1)C(=O)CCC2 (stereo partly drawn) [compound 33, S-(((25,2'S,3a′R,13a′R)-12′-hydroxy-7′,13a′-dimethoxy-5′-methyl-11′-oxo-3a′,8′,9′,10′,11′,13a′-hexahydro-2′H,4′H-spiro [oxirane-2,1′-[2,4]epoxyfuro[3,2-b]naphtho[2,3-h]chromen]-2′-yl)methyl)ethanethioate]	100 nM	lack of activity
20 nM	COc1c2c(c(O)c3c4c(c(C)cc13)C1OC3(CBr)OC1[C@@](OC)(O4)[C@@]31CO1)C(=O)CCC2 (stereo partly drawn) [compound 32, (2S,2′S,3a′R,13a′R)-2′-(Bromomethyl)-12′-hydroxy-7′,13a′-dimethoxy-5′-methyl-3a′,4′,8′9′,10′,13a′-hexahydro-2′H,11′H-spiro [oxirane-2,1′-[2,4]epoxyfuro[3,2-b]naphtho[2,3-h]chromen]-11′-one]	–	good tolerance
15 nM	COc1c2c(c(O)c3c4c(c(C)cc13)C1OC3(CO)OC1[C@@](O)(O4)[C@@]31CO1)C(=O)CCC2 (stereo partly drawn) [compound 20, (25,2′R,3a′R, 13a′R)-12′, 13a′-dihydroxy-2′-(hydroxymethyl)-7′-methoxy-5′-methyl-3a′, 4′,8′,9′,10′,13a′-hexahydro-2′H,11′H-spiro[oxirane-2,1′-[2.4]epoxyfuro[3,2-b]naphtho[2,3-h]chromen]-11′-one]	–	–
–	COc1c2c(c(O)c3c4c(c(C)cc13)C1OC3(COCC5OC(CO)C(O)C(O)C5O)OC1[C@@](OC)(O4)[C@@]31CO1)C(=O)CCC2 (stereo partly drawn) [compound 29, (2R,13a′R)-12′-Hydroxy-7′,13a′-dimethoxy-5′-methyl-2′-((((2R,3R,4S,5S,6R)-3,4,5-trihydroxy-6-(hydroxymethyl)tetrahydro-2H-pyran-2-yl)oxy)methyl)-3a′ 4′,8′,9′, 10′,13a′-hexahydro-2′H. 11′H-spiro [oxirane-2,1′-[2,4]epoxyfuro[3,2-b]naphtho[2,3-h]chromen]-11′-one]	–	poorly tolerated
22 nM	CCCOCC12OC3c4c(C)cc5c(OC)c6c(c(O)c5c4O[C@](OC)(C3O1)[C@@]21CO1)C(=O)CCC6 (stereo partly drawn) [compound 22, (2R,2′R,3a′R,13a′R)-12′-Hydroxy-7′,13a′-dimethoxy-5′-methyl-2′-(propoxymethyl)-3a′, 4′,8′,9′,10′,13a′-hexahydro-2′H,11′H-spiro[oxirane-2,1′-[2.4]epoxyfuro[3,2-b]naphtho[2,3-h]chromen]-11′-one]	–	–
> 100 nM	COc1c2c(c(O)c3c4c(c(C)cc13)C1OC3(COCc5ccccc5)OC1[C@@](O)(O4)[C@@]31CO1)C(=O)CCC2 (stereo partly drawn) [compound 17, (2S,2′R,3a′R, 13a′R)-2′-((Benzyloxy)methyl)-12′, 13a′-dihydroxy-7′-methoxy-5′-methyl-3a′ 4′,8′,9′,10′,13a′-hexahydro-2′H,11′H-spiro [oxirane-2,1′-[2,4]epoxyfuro[3,2-b]naphtho[2,3-h]chromen]-11′-one]	–	–
–	COc1c2c(c(O)c3c4c(c(C)cc13)C1OC3(CO)OC1[C@@](OC)(O4)[C@@]31CO1)C(=O)CCC2 (some centres unmarked) [compound 19, (2R.2′R,3a′R, 13a′R)-12′-Hydroxy-2′-(hydroxymethyl)-7′,13a′-dimethoxy-5′-methyl-3a′, 4′,8′,9′,10′,13a′-hexahydro-2′H, 11′H-spiro [oxirane-2,1′-[2,4]epoxyfuro[3,2-b]naphtho[2,3-h]chromen]-11′-one]	5.5 nM	–
–	COc1c2c(c(O)c3c4c(c(C)cc13)C1OC3(COCc5cn(Cc6ccccc6)nn5)OC1[C@@](OC)(O4)[C@@]31CO1)C(=O)CCC2 (stereo partly drawn) [compound 27, (2R,2′R,3a′R,13a′R)-2′-(((1-Benzyl-1H-1,2,3-triazol-4-yl)methoxy)methyl)-12′-hydroxy-7′,13a′-dimethoxy-5′-methyl-3a′,4′,8′,9′, 10′, 13a′-hexahydro-2′H,11′H-spiro [oxirane-2, 1′-[2,4]epoxyfuro[3,2-b]naphtho[2.3-h]chromen]-11′-one]	> 100 nM	ablates potency
–	COc1c2c(c(O)c3c4c(c(C)cc13)[C@@H]1O[C@]3(COP(=O)(O)O)O[C@@H]1[C@@](OC)(O4)[C@@]31CO1)C(=O)CCC2 [compound 35, ((2R,2′R,3a'S,4'S,13a′R)-12′-hydroxy-7′,13a′-dimethoxy-5′-methyl-11′-oxo-3a′,8′,9′,10′,11′,13a′-hexahydro-2′H,4′H-spiro [oxirane-2,1′-[2,4]epoxyfuro[3,2-b]naphtho[2,3-h]chromen]-2′-yl)methyl dihydrogen phosphate]	35 nM	good tolerance
14 nM	C=CCOCC12OC3c4c(C)cc5c(OC)c6c(c(O)c5c4O[C@](OC)(C3O1)[C@@]21CO1)C(=O)CCC6 (stereo partly drawn) [compound 23, (2R,2′R,3a′R,13a′R)-2′-((Allyloxy)methyl)-12′-hydroxy-7′,13a′-dimethoxy-5′-methyl-3a′,4′,8′,9′,10′,13a′-hexahydro-2′H, 11′H-spiro[oxirane-2,1′-[2,4]epoxyfuro[3,2-b]naphtho[2.3-h]chromen]-11′-one]	–	–
–	C#CCOCC12OC3c4c(C)cc5c(OC)c6c(c(O)c5c4O[C@](OC)(C3O1)[C@@]21CO1)C(=O)CCC6 (stereo partly drawn) [compound 24, (2R,2′R,3a′R,13a′R)-12′-Hydroxy-7′,13a′-dimethoxy-5′-methyl-2′-((prop-2-yn-1-yloxy)methyl)-3a′,4′,8′,9′,10′,13a′-hexahydro-2′H,11′H-spiro[oxirane-2,1′-[2,4]epoxyfuro[3,2-b]naphtho[2.3-h]chromen]-11′-one]	14 nM	–
10 nM	COc1c2c(c(O)c3c4c(c(C)cc13)C1O[C@]3(CN)O[C@H]1[C@@](OC)(O4)[C@@]31CO1)C(=O)CCC2 (stereo partly drawn) [compound 26, (2R,2′R,3a′R,13a′R)-2′-(Aminomethyl)-12′-hydroxy-7′,13a′-dimethoxy-5′-methyl-3a′, 4′,8′,9′,10′, 13a′-hexahydro-2′H, 11′H-spiro[oxirane-2,1′-[2,4]epoxyfuro[3,2-b]naphtho[2,3-h]chromen]-11′-one]	–	good tolerance
8 nM	COc1c2c(c(O)c3c4c(c(C)cc13)C1O[C@]3(CO)O[C@H]1[C@@](OC)(O4)[C@@]3(O)CBr)C(=O)CCC2 (stereo partly drawn) [compound 21, (1R,2R,3aR,13aR)-1-(bromomethyl)-1,12-dihydroxy-2-(hydroxymethyl)-7,13a-dimethoxy-5-methyl-1,2,3a,4,8,9,10,13a-octahydro-11H-2,4-epoxyfuro[3,2-b]naphtho[2,3-h]chromen-11-one]	–	–
–	COc1c2c(c(O)c3c4c(c(C)cc13)C1OC3(COC5CC(C)(O)C(OC(C)=O)C(C)O5)OC1[C@@](OC)(O4)[C@@]31CO1)C(=O)CCC2 (stereo partly drawn) [compound 30, (25,3S,4R,6S)-4-Hydroxy-6-(((2R,13a′R)-12′-hydroxy-7′,13a′-dimethoxy-5′-methyl-11′-oxo-3a′,8′,9′,10′,11′,13a′-hexahydro-2′H,4′H-spiro [oxirane-2,1′-[2,4]epoxyfuro[3,2-b]naphtho[2,3-h]chromen]-2′-yl)methoxy)-2,4-dimethyltetrahydro-2H-pyran-3-yl acetate]	20 nM	well tolerated
